Measurements taken from US20190135834A1, “5-SUBSTITUTED AZABENZIMIDAZOLE DERIVATIVE HAVING ???? ACTIVATION ACTION” (Shionogi & Co., Ltd., priority 2016, published 2019).

Target: T1, Human AMPK α2ß2γ1 (Homo sapiens, UniProt O43741+P54646)
T1 construct: The full length cDNAs of human AMPK ß2 (NM_005399.3) and human AMPK α2 (NM_006252.3); The full length cDNAs of human AMPK ß2 (NM_005399.3); 6xHis (N); made in house; host or cells: Escherichia coli BL21 CodonPlus (DE3)-RIL
Test: Test Example 2: evaluation of an activator for AMP-activated protein kinase (AMPK), LabChip mobility shift assay with CaMKK2-phosphorylated enzyme
Type: biochemical
Settings: for EC150 (compound concentration showing 150% relative to the control (100%)): FL-Peptide 7 substrate, 25° C., 2 hours; for Emax: read-out: Emax (maximum rate of increase in activity within the measurement range)
Protocol: The full length cDNAs of human AMPK ß2 (NM_005399.3) and human AMPK α2 (NM_006252.3) were inserted into the MCS1 and MCS2 of the pETDuet-1 vector to prepare a human AMPK ß2 and human AMPK α2 (6× His tag at the 5′ terminus) expressing plasmid. The plasmid was cotransfected with an expression plasmid, in which the full length cDNA of human AMPK γ1 (NM_002733.3) had been inserted into pET28b(+), into BL21 CodonPlus (DE3)-RIL to obtain an expression strain. The expression strain was cultured in TB medium, followed by induction with 0.5 mM IPTG, and cultured at 25° C. for 3 hours and then harvested. After ultrasonication, supernatant was collected and applied to Histrap FF column (GE) and RESOURCE Q column (GE) to prepare 12.5 mg of purified sample containing three types of subunit from 1.8 L of broth.
Preparation method of human CaMKK2 used to impart activity to AMPK An expression vector, in which the full length cDNA of human CAMKK ß (NM_172226.1) had been inserted into pGEX-6P-3, was transfected into BL21 Star (DE3). The expression strain was cultured in TB medium, followed by induction with 0.5 mM IPTG, and cultured at 25° C. for 3 hours and then harvested. After ultrasonication, supernatant was collected and applied to GSTrap FF column (GE) to prepare 14 mg of GST-fused CAMKK ß from 720 ml of broth.
Thus, phosphorylation treatment was carried out as pretreatment.
Human AMPK α2ß2γ1 in an amount to give a conversion rate of approximately 10% by reaction for 2 hours, and CaMKK2 in an amount capable of sufficiently imparting activity to AMPK for one hour were mixed in a buffer solution consisting of a 50 mM HEPES-NaOH buffer solution (pH 7.0), 100 mM NaCl, 5 mM magnesium chloride, 0.1% bovine serum albumin, 0.2 mM sodium orthovanadate(V), 1 mM ethylene glycol-bis(2-aminoethyl ether)-N,N,N′,N′-tetraacetic acid (EGTA), 5 mM disodium ß-glycerophosphate, 1 mM dithiothreitol and 0.2 mM ATP, and the resulting liquid was left to stand at 25° C. for 1 to 1.5 hours to sufficiently phosphorylate AMPK.
After that, to the enzyme liquid, which had been subjected to phosphorylation treatment, a compound dissolved in DMSO was added so as to have a 1% DMSO concentration. The resulting liquid was left to stand for 10 minutes.
To the liquid, a substrate solution consisting of a 50 mM HEPES-NaOH buffer solution (pH 7.0), 100 mM NaCl, 10 mM magnesium chloride, 0.1% bovine serum albumin, 0.2 mM sodium orthovanadate(V), 1 mM ethylene glycol-bis(2-aminoethyl ether)-N,N,N′,N′-tetraacetic acid (EGTA), 5 mM disodium ß-glycerophosphate, 2 mM dithiothreitol, 0.4 mM ATP and 3 μM FL-Peptide 7 (manufactured by Caliper Life Sciences, Inc.) was added in equal amount (10 μl in total). The resulting liquid was allowed to react at 25° C. for 2 hours, and 10 μl of 20 mM EDTA was added thereto to stop the reaction.
To detect phosphorylated fluorescent substrates, the reaction mixture was applied to a measuring device, LabChip EZ Reader II manufactured by Caliper Life Science, Inc., for detecting fluorescence by using differences in mobility due to differences in charge. The setting conditions for the device were pressure, −1.5 PSI; upstream voltage, −2250 V; downstream voltage, −400 V; post sample buffer sip time, 40 seconds; final delay, 120 seconds; and peak order, Product First.
A conversion rate was calculated from the peak heights of the obtained substrate and product. The conversion rate when not containing a compound was used as a control, and a concentration dependent curve was made by plotting the rate of increase in activity to the control at each concentration of a compound.

T1 sequence (P54646 whole entry): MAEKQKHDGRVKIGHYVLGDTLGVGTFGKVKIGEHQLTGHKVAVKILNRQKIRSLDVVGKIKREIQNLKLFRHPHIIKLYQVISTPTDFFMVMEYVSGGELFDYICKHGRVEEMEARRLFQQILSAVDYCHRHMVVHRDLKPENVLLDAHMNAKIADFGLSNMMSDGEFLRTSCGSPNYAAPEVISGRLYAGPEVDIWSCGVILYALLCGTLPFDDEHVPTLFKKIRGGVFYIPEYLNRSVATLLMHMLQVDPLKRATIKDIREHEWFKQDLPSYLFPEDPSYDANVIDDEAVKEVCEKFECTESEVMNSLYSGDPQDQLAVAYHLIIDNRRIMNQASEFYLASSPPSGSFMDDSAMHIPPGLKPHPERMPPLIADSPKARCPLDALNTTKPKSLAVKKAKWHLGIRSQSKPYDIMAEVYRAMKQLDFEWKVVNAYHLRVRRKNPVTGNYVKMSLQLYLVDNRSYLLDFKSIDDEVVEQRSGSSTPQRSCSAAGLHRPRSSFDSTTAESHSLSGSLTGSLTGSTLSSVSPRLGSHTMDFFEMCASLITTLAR
T1 sequence (O43741 whole entry): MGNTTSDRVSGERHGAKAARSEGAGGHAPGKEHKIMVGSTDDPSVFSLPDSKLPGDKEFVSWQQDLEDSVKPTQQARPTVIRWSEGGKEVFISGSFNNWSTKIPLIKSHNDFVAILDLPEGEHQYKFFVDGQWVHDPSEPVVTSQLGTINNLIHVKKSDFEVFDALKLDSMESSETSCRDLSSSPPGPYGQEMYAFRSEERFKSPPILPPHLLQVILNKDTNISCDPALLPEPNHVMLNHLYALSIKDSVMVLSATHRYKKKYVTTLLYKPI
T1 sequence (P54619 whole entry partner): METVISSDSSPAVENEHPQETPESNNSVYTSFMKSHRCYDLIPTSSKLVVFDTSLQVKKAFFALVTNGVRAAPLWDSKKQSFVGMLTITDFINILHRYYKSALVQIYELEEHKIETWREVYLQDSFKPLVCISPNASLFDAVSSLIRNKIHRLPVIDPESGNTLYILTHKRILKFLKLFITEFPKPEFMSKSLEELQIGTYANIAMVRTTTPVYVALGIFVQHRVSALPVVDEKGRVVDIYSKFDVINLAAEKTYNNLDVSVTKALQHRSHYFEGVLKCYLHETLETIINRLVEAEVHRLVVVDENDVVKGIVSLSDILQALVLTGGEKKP

O[C@@H]1CO[C@H]2[C@@H]1OC[C@H]2Oc1nc2nc(NC3CCc4cc(NCC(F)(F)F)cnc43)c(Cl)cc2[nH]1 (stereo partly shown) [Compound I-1-70]
EC150 (compound concentration showing 150% relative to the control (100%)): 21 nM
Emax (relative to control (100%)): 384%

Cc1cc(-c2cc(F)c3c(c2)CC[C@@H]3Nc2nc3nc(O[C@@H]4CO[C@H]5[C@@H]4OC[C@H]5O)[nH]c3cc2Cl)cnn1 [Compound I-2-45]
EC150 (compound concentration showing 150% relative to the control (100%)): 2.1 nM
Emax (relative to control (100%)): 711%

CC1(COc2cc(F)c3c(c2)CCC3Nc2nc3nc(O[C@@H]4CO[C@H]5[C@@H]4OC[C@H]5O)[nH]c3cc2Cl)COC1 (stereo partly shown) [Compound I-2-54]
EC150 (compound concentration showing 150% relative to the control (100%)): 1.5 nM
Emax (relative to control (100%)): 643%

COC/C=C/c1cnc2c(c1)CCC2Nc1nc2nc(O[C@@H]3CO[C@H]4[C@@H]3OC[C@H]4O)[nH]c2cc1Cl (single isomer, unassigned) [Compound I-1-13]
EC150 (compound concentration showing 150% relative to the control (100%)): 2 nM
Emax (relative to control (100%)): 604%

Cn1ccc(-c2cc(F)c3c(c2)CCC3Nc2nc3nc(O[C@@H]4CO[C@H]5[C@@H]4OC[C@H]5O)[nH]c3cc2Cl)cc1=O (stereo partly shown) [Compound I-1-39]
EC150 (compound concentration showing 150% relative to the control (100%)): 2.9 nM
Emax (relative to control (100%)): 384%

CC(C)n1cc(-c2cc(F)c3c(c2)CC[C@@H]3Nc2nc3nc(O[C@@H]4CO[C@H]5[C@@H]4OC[C@H]5O)[nH]c3cc2Cl)ccc1=O [Compound I-2-48]
EC150 (compound concentration showing 150% relative to the control (100%)): 6.2 nM
Emax (relative to control (100%)): 737%

O[C@@H]1CO[C@H]2[C@@H]1OC[C@H]2Oc1nc2nc(NC3CCc4cc(O[C@@H]5CCOC5)cc(F)c43)c(Cl)cc2[nH]1 (stereo partly shown) [Compound I-2-49]
EC150 (compound concentration showing 150% relative to the control (100%)): 3.4 nM
Emax (relative to control (100%)): 667%

CC(=O)Nc1cc(F)c2c(c1)CCC2Nc1nc2nc(O[C@@H]3CO[C@H]4[C@@H]3OC[C@H]4O)[nH]c2cc1Cl (stereo partly shown) [Compound I-1-45]
EC150 (compound concentration showing 150% relative to the control (100%)): 4.7 nM
Emax (relative to control (100%)): 435%

COC/C=C/c1cc(F)c2c(c1)CC[C@@H]2Nc1nc2nc(O[C@@H]3CO[C@H]4[C@@H]3OC[C@H]4O)[nH]c2cc1Cl [Compound I-1-94]
EC150 (compound concentration showing 150% relative to the control (100%)): 5.6 nM
Emax (relative to control (100%)): 416%

COc1ccc(-c2cc(F)c3c(c2)CCC3Nc2nc3nc(O[C@@H]4CO[C@H]5[C@@H]4OC[C@H]5O)[nH]c3cc2Cl)cn1 (stereo partly shown) [Compound I-2-26]
EC150 (compound concentration showing 150% relative to the control (100%)): 7.1 nM
Emax (maximum rate of increase in activity within the measurement range) (relative to control (100%)): 669%

CS(=O)(=O)NCCOc1cc(F)c2c(c1)CCC2Nc1nc2nc(O[C@@H]3CO[C@H]4[C@@H]3OC[C@@H]4F)[nH]c2cc1Cl (stereo partly shown) [Compound I-2-35]
EC150 (compound concentration showing 150% relative to the control (100%)): 10 nM
Emax (relative to control (100%)): 679%

O[C@@H]1CO[C@H]2[C@@H]1OC[C@H]2Oc1nc2nc(NC3CCc4cc(OCF)cc(F)c43)c(Cl)cc2[nH]1 (stereo partly shown) [Compound I-2-72]
EC150 (compound concentration showing 150% relative to the control (100%)): 1.8 nM
Emax (relative to control (100%)): 592%

O[C@@H]1CO[C@H]2[C@@H]1OC[C@H]2Oc1nc2nc(N[C@H]3CCc4cc(-c5cnc(C6CC6)nc5)cc(F)c43)c(Cl)cc2[nH]1 [Compound I-2-57]
EC150 (compound concentration showing 150% relative to the control (100%)): 11 nM
Emax (relative to control (100%)): 636%

CCOc1ncc(-c2cc(F)c3c(c2)CC[C@@H]3Nc2nc3nc(O[C@@H]4CO[C@H]5[C@@H]4OC[C@H]5O)[nH]c3cc2Cl)cn1 [Compound I-2-71]
EC150 (compound concentration showing 150% relative to the control (100%)): 8.6 nM
Emax (relative to control (100%)): 590%

COCn1cc(-c2cc(F)c3c(c2)CC[C@@H]3Nc2nc3[nH]c(O[C@@H]4CO[C@H]5[C@@H]4OC[C@H]5O)nc3cc2Cl)cn1 [Compound I-2-17]
EC150 (compound concentration showing 150% relative to the control (100%)): 1.4 nM
Emax (relative to control (100%)): 720%

O[C@@H]1CO[C@H]2[C@@H]1OC[C@H]2Oc1nc2nc(NC3CCc4cc(OCCOC5CCC5)cc(F)c43)c(Cl)cc2[nH]1 (stereo partly shown) [Compound I-2-41]
EC150 (compound concentration showing 150% relative to the control (100%)): 10 nM
Emax (relative to control (100%)): 604%

Cn1cc(-c2cc(F)c3c(c2)CCC3Nc2nc3nc(O[C@@H]4CO[C@H](CO)C4)[nH]c3cc2Cl)cn1 (single isomer, unassigned) [Compound I-1-29]
EC150 (compound concentration showing 150% relative to the control (100%)): 1.9 nM
Emax (relative to control (100%)): 426%

OC/C=C/c1cnc2c(c1)CCC2Nc1nc2nc(O[C@@H]3CO[C@H]4[C@@H]3OC[C@H]4O)[nH]c2cc1Cl (stereo partly shown) [Compound I-1-6]
EC150 (compound concentration showing 150% relative to the control (100%)): 6.8 nM
Emax (relative to control (100%)): 516%

O[C@@H]1CO[C@H]2[C@@H]1OC[C@H]2Oc1nc2nc(NC3CCc4cc(OCC5COC5)cc(F)c43)c(Cl)cc2[nH]1 (stereo partly shown) [Compound I-2-53]
EC150 (compound concentration showing 150% relative to the control (100%)): 4 nM
Emax (relative to control (100%)): 637%

O[C@@H]1CO[C@H]2[C@@H]1OC[C@H]2Oc1nc2nc(NC3CCc4cc(-c5cnccn5)cc(F)c43)c(Cl)cc2[nH]1 (stereo partly shown) [Compound I-1-111]
EC150 (compound concentration showing 150% relative to the control (100%)): 4.5 nM
Emax (relative to control (100%)): 424%

O[C@@H]1CO[C@H]2[C@@H]1OC[C@H]2Oc1nc2nc(NC3CCc4cc(OCCN5CCCC5)cc(F)c43)c(Cl)cc2[nH]1 (stereo partly shown) [Compound I-1-97]
EC150 (compound concentration showing 150% relative to the control (100%)): 2.1 nM
Emax (relative to control (100%)): 433%

O=S(=O)(NCCOc1cc(F)c2c(c1)CCC2Nc1nc2nc(O[C@@H]3CO[C@H]4[C@@H]3OC[C@H]4O)[nH]c2cc1Cl)C(F)F (stereo partly shown) [Compound I-2-32]
EC150 (compound concentration showing 150% relative to the control (100%)): 9 nM
Emax (relative to control (100%)): 714%

Cn1cc(-c2cnc3c(c2)CCC3Oc2nc3nc(O[C@@H]4CO[C@H]5[C@@H]4OC[C@H]5O)[nH]c3cc2Cl)cn1 (stereo partly shown) [Compound I-1-15]
EC150 (compound concentration showing 150% relative to the control (100%)): 10 nM
Emax (relative to control (100%)): 388%

CS(=O)(=O)CCCOc1cc(F)c2c(c1)CCC2Nc1nc2nc(O[C@@H]3CO[C@H]4[C@@H]3OC[C@H]4O)[nH]c2cc1Cl (stereo partly shown) [Compound I-2-55]
EC150 (compound concentration showing 150% relative to the control (100%)): 3.6 nM
Emax (relative to control (100%)): 637%

O[C@@H]1CO[C@H]2[C@@H]1OC[C@H]2Oc1nc2nc(NC3CCc4cc(OCCOCC(F)F)cc(F)c43)c(Cl)cc2[nH]1 (stereo partly shown) [Compound I-2-59]
EC150 (compound concentration showing 150% relative to the control (100%)): 4.5 nM
Emax (relative to control (100%)): 634%

Cn1ccc(-c2cc(F)c3c(c2)CCC3Oc2nc3nc(O[C@@H]4CO[C@H]5[C@@H]4OC[C@H]5O)[nH]c3cc2Cl)cc1=O (single isomer, unassigned) [Compound I-1-23]
EC150 (compound concentration showing 150% relative to the control (100%)): 1.3 nM
Emax (relative to control (100%)): 454%

Cn1cccc(-c2cc(F)c3c(c2)CCC3Oc2nc3nc(O[C@@H]4CO[C@H]5[C@@H]4OC[C@H]5O)[nH]c3cc2Cl)c1=O (stereo partly shown) [Compound I-1-77]
EC150 (compound concentration showing 150% relative to the control (100%)): 3.3 nM
Emax (relative to control (100%)): 386%

COC/C=C/c1cc(F)c2c(c1)CCC2Oc1nc2nc(O[C@@H]3CO[C@H]4[C@@H]3OC[C@H]4O)[nH]c2cc1Cl (single isomer, unassigned) [Compound I-1-19]
EC150 (compound concentration showing 150% relative to the control (100%)): 3.5 nM
Emax (relative to control (100%)): 404%

OC1CC=C(c2cc(F)c3c(c2)CCC3Nc2nc3nc(O[C@@H]4CO[C@H]5[C@@H]4OC[C@H]5O)[nH]c3cc2Cl)CC1 (stereo partly shown) [Compound I-2-38]
EC150 (compound concentration showing 150% relative to the control (100%)): 3.1 nM
Emax (relative to control (100%)): 725%
